Laboratory results from paper PMC8838787, “The Antiproliferative and Apoptotic Effects of a Novel Quinazoline Carrying Substituted-Sulfonamides: In Vitro and Molecular Docking Study” (Molecules, 2022).

What was measured:
A549 (lung) cancer cells = assay: MTT cell viability assay, A549; type: cell-based; settings: Homo sapiens, A549, 48 h, average ± SD (n = 3)
Procedure: (§1) Compounds 4a–n were subjected to the cytotoxicity screening of the cell lines MCF-7 (breast), LoVo (colon), HepG2 (liver) and A549 (lung) carcinoma cells as well as HUVEC normal cell lines. The MTT assay was employed to assess cytotoxicity after 48 h of treatment with different concentrations of each compound and doxorubicin was used as a reference drug. The results were presented in Table 1 as growth inhibitory concentration (IC50 values).
(§2) Cell viability was determined using 3-(4,5-dimethylthiazol-2-yl)-2,5-diphenyl tetrazolium bromide (MTT) assay as stated previously. In brief, A549 (lung), HepG2 (liver), LoVo (colon), MCF-7 (breast) cancer cells as well as normal cells (HUVEC) were seeded in 96-well plates (10^5 per well) and compounds were added in a different final concentration. All cells were treated for 48 h, and then 10μL of MTT reagent (5 mg/mL) was added to each well and further incubated for 4 h. Thereafter, 0.1 mL of acidified isopropanol was added to solubilize formazan product and the developed color was measured at 570 nm in Microplate ELISA Reader (BioTek, Elx-800, Winooski, VT, USA). The IC50 values (concentration required for 50% inhibition of cell viability) were calculated using dose response curve. Cell viability was calculated as = (Ab Treated/Ab Control) × 100.
(§3) The A549, HepG2, LoVo and MCF-7 cancer cell lines were obtained from the German Collection of Microorganisms and Cell Cultures (DSMZ) (Braunschweig, Germany). For Human umbilical vein endothelial cells (HUVEC cells), it was purchased from American Type Culture Collection (16549; Cat no. PCS-100-010; ATTCC, Manassas, VA, USA).

[1] = system: HepG2 (liver) cancer cells; assay: MTT cell viability assay, HepG2; type: cell-based; settings: Homo sapiens, 48 h, average ± SD (n = 3)
Procedure: as §1, §2, §3

[2] = system: LoVo (colon) cancer cells; assay: MTT cell viability assay, LoVo; type: cell-based; settings: Homo sapiens, 48 h, average ± SD (n = 3)
Procedure: as §1, §2, §3

[3] = system: MCF-7 (breast) cancer cells; assay: MTT cell viability assay, MCF-7; type: cell-based, human; settings: for IC50: Homo sapiens, MCF7, 48 h, average ± SD (n = 3); for cytotoxic activity (in words, SAR discussion): 48 h
Procedure: as §1, §2, §3

HUVEC normal cells = assay: MTT cell viability assay, normal HUVEC; type: cell-based; settings: Homo sapiens, 48 h, average ± SD (n = 3)
Procedure: as §1, §2, §3

| IC50 (A549 (lung) cancer cells) [µM] | IC50 [1] [µM] | IC50 [2] [µM] | IC50 [3] [µM] | melting point [°C] | Structure (SMILES) | IC50 (HUVEC normal cells) [µM] | cytotoxic activity (in words, SAR discussion) [3] |
| --- | --- | --- | --- | --- | --- | --- | --- |
| 19.6 ± 1.7 | 35 ± 1.2 | 37.5 ± 1.8 | 14.2 ± 0.4 | 165 to 167 | COc1cccc2c(=O)n(-c3ccc(S(=O)(=O)NCC(=O)Nc4ccccc4)cc3)c(SCC(=O)Nc3ccccc3)nc12 [Compound 4a] | 20.9 ± 1 | – |
| 11.4 ± 1.6 | 33.7 ± 0.8 | 35.8 ± 1 | 36.2 ± 2 | 102 to 104 | COc1cccc2c(=O)n(-c3ccc(S(=O)(=O)NCC(=O)Nc4ccccc4C)cc3)c(SCC(=O)Nc3ccccc3C)nc12 [Compound 4b] | 32.7 ± 1.2 | – |
| > 40 | > 40 | > 40 | > 40 | 112 to 114 | COc1cccc2c(=O)n(-c3ccc(S(=O)(=O)NCC(=O)Nc4cccc(C)c4)cc3)c(SCC(=O)Nc3cccc(C)c3)nc12 [Compound 4c] | > 40 | abolishes the cytotoxicity |
| > 40 | > 40 | > 40 | > 40 | 246 to 248 | CCc1ccccc1NC(=O)CNS(=O)(=O)c1ccc(-n2c(SCC(=O)Nc3ccccc3CC)nc3c(OC)cccc3c2=O)cc1 [Compound 4e, N-(2-ethylphenyl)-2-((3-(4-(N-(2-((2-ethylphenyl)amino)-2-oxoethyl)sulfamoyl)-phe-nyl)-8-methoxy-4-oxo-3,4-dihydroquinazolin-2yl)thio)acetamide] | > 40 | no antiproliferative |
| > 40 | > 40 | > 40 | > 40 | 219 to 221 | CCc1ccc(NC(=O)CNS(=O)(=O)c2ccc(-n3c(SCC(=O)Nc4ccc(CC)cc4)nc4c(OC)cccc4c3=O)cc2)cc1 [Compound 4g, N-(4-ethylphenyl)-2-((3-(4-(N-(2-((4-ethylphenyl)amino)-2-oxoethyl)sulfamoyl)-phenyl)-8-methoxy-4-oxo-3,4-dihydroquinazolin-2yl)thio)acetamide] | > 40 | no antiproliferative |
| 13.3 ± 0.85 | 25.4 ± 0.95 | 31.7 ± 1 | 31.6 ± 1.3 | 117 to 119 | COc1ccc(NC(=O)CNS(=O)(=O)c2ccc(-n3c(SCC(=O)Nc4ccc(OC)cc4)nc4c(OC)cccc4c3=O)cc2)cc1 [Compound 4h, 2-(4-(8-Methoxy-2-((2-((4-methoxyphenyl)amino)-2-oxoethyl)thio)-4-oxoquinazolin-3(4H)-yl)phenylsulfonamido)-N-(4-methoxy-phenyl)acetamide] | – | – |
| 13.8 ± 0.5 | 20.6 ± 1.6 | 22 ± 1.01 | 26.4 ± 0.79 | > 350 | CCOc1ccc(NC(=O)CNS(=O)(=O)c2ccc(-n3c(SCC(=O)Nc4ccc(OCC)cc4)nc4c(OC)cccc4c3=O)cc2)cc1 [Compound 4i, N-(4-Ethoxyphenyl)-2-((3-(4-N-(2((4-ethoxyphenyl)amino)-2-oxoethyl)sulfamoyl)-phenyl-8-methoxy-4-oxo-3,4-dihydroquinazolin-2-yl)thio)acetamide] | 18.2 ± 2.2 | – |
| > 40 | > 40 | > 40 | > 40 | 239 to 241 | COc1cc(NC(=O)CNS(=O)(=O)c2ccc(-n3c(SCC(=O)Nc4cc(OC)cc(OC)c4)nc4c(OC)cccc4c3=O)cc2)cc(OC)c1 [Compound 4j, N-(3,5-Dimethoxyphenyl)-2-((3-(4-N-(2((3,5-dimethoxyphenyl)amino)-2-oxoethyl)-sulfa-moyl)phenyl-8-methoxy-4-oxo-3,4-dihydroquinazolin-2-yl)thio)acetamide] | > 40 | – |
| > 40 | > 40 | > 40 | > 40 | 260 to 262 | COc1cc(NC(=O)CNS(=O)(=O)c2ccc(-n3c(SCC(=O)Nc4cc(OC)c(OC)c(OC)c4)nc4c(OC)cccc4c3=O)cc2)cc(OC)c1OC [Compound 4k] | > 40 | – |
| 1.1 ± 0.01 | – | 1.5 ± 0.05 | 1.4 ± 0.3 | – | COc1cccc2c1C(=O)c1c(O)c3c(c(O)c1C2=O)C[C@@](O)(C(=O)CO)C[C@@H]3O[C@H]1C[C@H](N)[C@H](O)[C@H](C)O1 [Doxorubicin, reference compound] | 3.7 ± 0.2 | – |

| Structure (SMILES) | IC50 (A549 (lung) cancer cells) [µM] | IC50 [1] [µM] | IC50 [2] [µM] | IC50 [3] [µM] | melting point [°C] | IC50 (HUVEC normal cells) [µM] | cytotoxic activity (in words, SAR discussion) [3] |
| --- | --- | --- | --- | --- | --- | --- | --- |
| COc1cccc2c(=O)n(-c3ccc(S(=O)(=O)NCC(=O)Nc4ccc([N+](=O)[O-])cc4C)cc3)c(SCC(=O)Nc3ccc([N+](=O)[O-])cc3C)nc12 [Compound 4l, 2-(4-(8-Methoxy-2-((2-((2-methyl-4-nitrophenyl)amino)-2-oxoethyl)thio)-4-oxoquinazolin-3(4H)-yl)phenylsulfonamido)-N-(2-methyl-4-nitrophenyl)acetamide] | > 40 | > 40 | > 40 | > 40 | 127 to 129 | > 40 | – |
| COc1cccc2c(=O)n(-c3ccc(S(=O)(=O)NCC(=O)Nc4c(C)cccc4[N+](=O)[O-])cc3)c(SCC(=O)Nc3c(C)cccc3[N+](=O)[O-])nc12 [Compound 4m, 2-(4-(8-Methoxy-2-((2-((2-methyl-6-nitrophenyl)amino)-2-oxoethyl)thio)-4-oxoquinazolin-3(4H)-yl)phenylsulfonamido)-N-(2-methyl-6-nitrophenyl)acetamide] | > 40 | > 40 | > 40 | > 40 | 272 to 274 | > 40 | – |
